Laboratory results: article PMC9866588, “Novel 7-Chloro-4-aminoquinoline-benzimidazole Hybrids as Inhibitors of Cancer Cells Growth: Synthesis, Antiproliferative Activity, in Silico ADME Predictions, and Docking” (Molecules, 2023)

Experiments:
[1] = system: MCF-7 (human breast adenocarcinoma) cells; experiment: MTT antiproliferative assay, MCF-7; format: cell-based; conditions: MCF7, 72 h, mean ± SD of three independent experiments
Procedure: (§1) The growth inhibition activity was assessed according to the slightly modified procedure performed at the National Cancer Institute, Developmental Therapeutics Program.
(§2) The examined compounds were dissolved in DMSO (1 × 10^−2 M). The experiments were carried out on seven human tumor cell lines and a normal cell line. The following cell lines were used: HeLa (human cervical adenocarcinoma; purchased from ATCC), CaCo-2 (human colorectal adenocarcinoma), MCF-7 (human breast adenocarcinoma), CCRF-CEM (human acute lymphoblastic leukemia), Hut78 (T-cell lymphoma), THP-1 (acute monocytic leukemia), Burkitt lymphoma (Raji), and MDCK1 (Madine–Darby canine kidney). The MDCK1 cells were used between 24 and 26 passages.
(§3) The adherent cells were cultured in Dulbecco’s modified Eagle medium—DMEM (Gibco, Termo Fisher Scientific Inc., Leicestershire, England, UK), supplemented with 10% heat-inactivated fetal bovine serum (FBS, Gibco, Termo Fisher Scientific Inc., Leicestershire, England, UK), 2 mM glutamine, and 100U/0.1mg penicillin/streptomycin. The cells in suspension were cultured in RPMI 1640 (Gibco, Termo Fisher Scientific Inc., Leicestershire, England, UK) medium, supplemented with 10% FBS (Gibco, Termo Fisher Scientific Inc., Leicestershire, England, UK), 2 mM glutamine, 1 mM sodium pyruvate, and 10 mM HEPES. The cells were grown in a humidified atmosphere under the conditions of 37 °C/5% of CO2 gas in the CO2 incubator (IGO 150 CELLlife^TM, JOUAN, Thermo Fisher Scientific, Waltham, MA, USA).
(§4) The adherent cells (HeLa, CaCo-2, MCF-7, and MDCK-1) were plated in 96-well flat bottom plates (Greiner, Frickenhausen, Austria) at a concentration of 2 × 10^4 cells/mL. The suspension cells (Raji, THP-1, CCRF-CEM and Hut78) were plated in 96-well microtiter plates (Sarstead, Newton, NC, USA) at a concentration of 1 × 10^5 cells/mL. Twenty-four hours later, the cells were treated with test agents in […] and incubated for a further 72 h. The working dilutions were freshly prepared on the day of testing. The solvent was also tested for eventual inhibitory activity by adjusting its concentration to be the same as in the working concentrations. After 72 h of incubation, the cell growth rate was evaluated by performing the MTT assay, which detects dehydrogenase activity in viable cells. For this purpose, upon completion of the incubation period, the growth medium was discarded and 50 μL of MTT was added to each well at a concentration of 5 mg/mL. After four hours of incubation at 37 °C, the water insoluble MTT-formazan crystals were dissolved in 150 μL of dimethyl-sulfoxide (DMSO) for the adherent cells and in 10% SDS with 0.01 mol/L HCl for the cells grown in suspension. The absorbance (OD, optical density) was measured on a microplate reader (iMark, BIO RAD, Hercules, CA, USA) at 595 nm.
(§5) The percentage of live cells was calculated as follows: % = OD (sample) − OD (background)/OD (control) − OD (background) × 100.
(§6) The optical density (OD) of the background for the adherent cells is the OD of the MTT solution and DMSO; the OD (background) for the suspension cells is the OD of the culture medium with MTT and 10% SDS with 0.01 mol/L HCl; the OD (control) is the OD of the cells grown without the tested compounds.
(§7) The calculation of the GI50 value curves and QC analysis was performed using the Excel tools and GraphPadPrism software (La Jolla, CA, USA), v. 5.03. Briefly, individual concentration effect curves are generated by plotting the logarithm of the concentration of the tested compounds (X) vs. the corresponding percent inhibition values (Y) using the least squares fit. The best-fit GI50 values are calculated using log (inhibitor) versus normalized response—variable slope equation, where Y Ľ 100/(1 ţ 10 ((LogIC50 _ X) × HillSlope)). The QC criteria parameters (Z0, S:B, R2, HillSlope) were checked for every GI50 curve.

[2] = MTT antiproliferative assay, ranges stated over several cell lines; format: cell-based; conditions: human (tumor cell lines) and dog (MDCK1); abstract, range over cell lines; read-out: GI50 range (strong cytotoxic activity)
Procedure: as §1, §2, §3, §4, §5, §6, §7

[3] = system: CCRF-CEM (human acute lymphoblastic leukemia) cells; experiment: MTT antiproliferative assay, CCRF-CEM; format: cell-based; conditions: for GI50: Homo sapiens, CCRF-CEM, 72 h, MTT, mean ± SD of three independent experiments
Procedure: as §1, §2, §3, §4, §5, §6, §7

THP-1 cells = experiment: Flow cytometry analysis of cell cycle, THP-1; format: cell-based, human; conditions: THP-1, 5 μM, 24 h
Procedure: (§8) To analyze the effects of the selected compounds (5d, 8d, and 12d) on the cell cycle of the HuT78 and THP-1 cells, the cells were seeded in 6-well plates (5 × 10^5 cells per well) and treated for 24 h with the selected compounds 5d and 12d (5 μM). The cells were then collected and fixed in cold 70% ethanol. The fixed samples were stained with 15 µg/mL of propidium iodide (PI) at room temperature and analyzed by flow cytometry (FACS Canto II, BD Biosciences). The results were analyzed using FlowLogic software.
(§9) One-way ANOVA analysis of variance was performed in the MedCalc statistical program for the analysis of the cell cycle. p-values of less than 0.05 were considered to be statistically significant.

HuT78 cells [4] = experiment: Annexin V-FITC/PI apoptosis detection; format: cell-based, human; conditions: HuT78, 5 μM, 24 h
Procedure: The proapoptotic potential of compounds 5d and 12d was tested on the HuT78 cells using the Annexin V-FITC Apoptosis Staining/Detection Kit (ab14085; abcam, UK). The cells were plated in 6-well plates at a concentration of 5 × 10^5 cells/well and treated for 24 h with 12d at a concentration of 5 μM. After the incubation period, the cells were collected and centrifuged at 1100 rpm for 6 min, stained according to the manufacturer‘s protocol, and analyzed by flow cytometry (BD FACSCalibur, Becton Dickinson, San Jose, CA, USA) using FlowJo software (FlowJo, LLC, Ashland, OR, USA).

[5] = system: Hut78 (T-cell lymphoma) cells; experiment: MTT antiproliferative assay, HuT78; format: cell-based, human; conditions: for GI50: Homo sapiens, HuT78, 72 h, MTT, mean ± SD of three independent experiments; for tumor selectivity index (SI) HuT78: with respect to MDCK1 cells
Procedure: as §1, §2, §3, §4, §5, §6, §7

[6] = system: Raji (Burkitt lymphoma) cells; experiment: MTT antiproliferative assay, Raji; format: cell-based, human; conditions: for GI50: Homo sapiens, Raji, 72 h, MTT, mean ± SD of three independent experiments
Procedure: as §1, §2, §3, §4, §5, §6, §7

HuT78 cells [7] = experiment: Flow cytometry analysis of cell cycle, HuT78; format: cell-based, human; conditions: HuT78, 5 μM, 24 h
Procedure: as §8, §9

HuT78 cells [8] = experiment: Mitochondrial membrane potential (∆Ψm), TMRE flow cytometry; format: cell-based, human; conditions: HuT78, 5 μM, 24 h
Procedure: Changes in the (∆Ψm) were measured using TMRE (tetramethylrhodamine, ethyl ester and perchlorate) dye. In brief, the tested cells (HuT 78) were plated in 6-well plates at a concentration of 5 × 10^5 cells per well and treated with 5 μM of the compounds 5d and 12d. After 24 h of treatment, the cells were collected, centrifuged for 6 min at 1100 rpm, and stained with 200 nM of TMRE dye according to the kit protocol (TMRE Mitochondrial Membrane Potential Assay Kit, abcam, Cambridge, UK). The positive control cells were treated with 20 μM FCCP (carbonyl cyanide-p-trifluoromethoxyphenylhydrazone) for 10 min. The cells were analyzed by flow cytometry (BD FACSCalibur, Becton Dickinson, San Jose, CA, USA) and FlowJo software (FlowJo, LLC, Ashland, OR, USA).

[9] = system: THP-1 (acute monocytic leukemia) cells; experiment: MTT antiproliferative assay, THP-1; format: cell-based, human; conditions: for GI50: Homo sapiens, THP-1, 72 h, MTT, mean ± SD of three independent experiments, read-out: GI50 THP1
Procedure: as §1, §2, §3, §4, §5, §6, §7

[10] = system: CaCo-2 (human colorectal adenocarcinoma) cells; experiment: MTT antiproliferative assay, CaCo-2; format: cell-based; conditions: 72 h, mean ± SD of three independent experiments
Procedure: as §1, §2, §3, §4, §5, §6, §7

[11] = system: HeLa (human cervical adenocarcinoma) cells; experiment: MTT antiproliferative assay, HeLa; format: cell-based; conditions: 72 h, mean ± SD of three independent experiments
Procedure: as §1, §2, §3, §4, §5, §6, §7

[12] = system: MDCK1 (Madine–Darby canine kidney) cells; experiment: MTT antiproliferative assay, MDCK1; format: cell-based; conditions: Canis lupus familiaris, MDCK1, 72 h, mean ± SD of three independent experiments
Procedure: as §1, §2, §3, §4, §5, §6, §7

[13] = system: normal (MDCK1) and tumor cell lines; experiment: MTT antiproliferative assay, ranges stated over several cell lines; format: cell-based; conditions: MDCK1 and carcinoma cell lines; read-out: GI50, normal and carcinoma cells
Procedure: as §1, §2, §3, §4, §5, §6, §7

SMILES | GI50 [1] [µM] | GI50 at 72 h [2] [µM] | GI50 [3] [µM] | GI50 [5] [µM] | tumor selectivity index (SI) HuT78 [5] | GI50 [6] [µM] | GI50 [9] [µM] | GI50 [10] [µM] | GI50 [11] [µM] | GI50 [12] [µM] | other results
O=C(NCCNc1ccnc2cc(Cl)ccc12)c1ccc(-c2nc3ccccc3[nH]2)cc1 [Compound 12d, 4-(1H-benzo[d]imidazol-2-yl)-N-(2-(7-chloroquinolin-4-ylamino)ethyl)benzamide] | 20 ± 7.2 | 0.4 to 8 | 17.2 ± 7.7 | 3.5 ± 1.5 | 28.5 | 57.7 ± 23.8 | 4 ± 0.8 | 16.4 ± 5.6 | 100 | 100 | changes in the other phases of the cell cycle (other than subG0/G1) (THP-1 cells): not statistically significant; increase of cells in subG0/G1 phase (THP-1 cells; vs control): 3.4 times; cells in early apoptosis (HuT78 cells [4]): 3.97%; cells in late stage of apoptosis/necrosis (HuT78 cells [4]): 83.75%; proportion of polyploid giant cancer cells (HuT78 cells [7]): increased proportion; increase of cells in subG0/G1 phase (HuT78 cells [7]; vs control): 46 times; decrease in G0/G1 phase (HuT78 cells [7]; vs non-treated cells): 63.8%; cells with mitochondrial membrane disruption / change in ∆Ψm (HuT78 cells [8]): more than 85%
Clc1ccc2c(N3CCN(c4ccc(-c5nc6ccccc6[nH]5)cc4)CC3)ccnc2c1 [Compound 8d, 4-(4-(4-(1H-benzo[d]imidazol-2-yl)phenyl)piperazin-1-yl)-7-chloroquinoline] | > 100 | 0.4 to 8 | 5 ± 2.6 | 8.1 ± 4.7 | > 12.3 | 3.8 ± 0.5 | 3.2 ± 1.1 | > 100 | > 100 | > 100 | GI50 [13]: > 100 µM; tumor selectivity index (SI) CCRF CEM ([3]; with respect to MDCK1 cells): > 20; changes in the cell cycle (THP-1 cells; vs non-treated cells): no significant changes; tumor selectivity index (SI) Raji ([6]; with respect to MDCK1 cells): > 26.3; changes in the cell cycle (HuT78 cells [7]; vs non-treated cells): no significant changes; tumor selectivity index (SI) THP1 ([9]; with respect to MDCK1 cells): > 31.5
